This passage reports IC50 results from US20120220567A1, “BENZO-FUSED OXAZEPINE COMPOUNDS AS STEAROYL-COENZYME A DELTA-9 DESATURASE INHIBITORS” (priority 2009, published 2012).

The first assay deals with T1, SCD-1 (Homo sapiens, UniProt O00767).
T1 construct: 50 μg of protein from a HepG2 cell P2 pellet; endogenous in cells; host or cells: HepG2 cells (P2 pellet)
T1 sequence (O00767 1-359): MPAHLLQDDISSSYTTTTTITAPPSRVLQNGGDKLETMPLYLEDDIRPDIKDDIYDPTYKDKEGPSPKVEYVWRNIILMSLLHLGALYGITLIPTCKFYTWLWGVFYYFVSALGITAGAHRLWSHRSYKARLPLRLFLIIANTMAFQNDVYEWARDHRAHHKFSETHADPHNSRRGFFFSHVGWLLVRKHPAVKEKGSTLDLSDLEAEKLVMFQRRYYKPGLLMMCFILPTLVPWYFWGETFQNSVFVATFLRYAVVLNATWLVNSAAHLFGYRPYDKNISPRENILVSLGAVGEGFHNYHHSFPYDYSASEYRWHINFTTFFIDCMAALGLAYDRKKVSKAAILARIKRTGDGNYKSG
The assay is described as follows: Stearoyl-CoA desaturase assay (HepG2 cell P2 pellet). The assay is classed as biochemical. As to conditions: Table 1, compounds of formula (Ia); protein from HepG2 cell P2 pellet, 20 μM stearoyl-CoA, 15 min at 25° C.; read-out: Ave IC50. As to the method: Stearoyl-CoA desaturase assays were performed in according to Talamo and Bloch. […] Assays were run in triplicate in 100-μl volumes of 100 mM TrisHCl, pH 7.3, containing 20 μM stearoyl-CoA, 2 mM β-NADH, and 50 μg of protein from a HepG2 cell P2 pellet. Since SCD-1 is the only isoform of SCD expressed in these cells, the assay is specific for SCD-1 with these cells as the source of enzyme. Reaction mixtures were incubated fifteen minutes at 25° C. and reactions were then stopped with a volume of trichloroacetic acid giving a final concentration of 0.2%. After five minutes, a 90-μl volume was transferred to a Millipore Multiscreen HTS 96-well filtration plate (MSHVN4B50) containing 125 μl of 10% charcoal in each well, to which vacuum had been previously applied. Plates were shaken fifteen minutes and then filtered into a collection plate. Fifty-μI volumes of filtrate were transferred to another plate containing 150 μl of MicroScint 40 for counting on a TopCount scintillation counter.
Turning to `CCc1ccc(CN2CCC3(CCN(C(=O)C(CO)NC(C)=O)CC3)Oc3ccccc32)cc1` (stereo not drawn) [Compound 2], the IC50 is over 10 µM.

Regarding `CCc1ccc(CN2CCC3(CCN(C(=O)[C@H](C)NC(C)=O)CC3)Oc3ccccc32)cc1` [Compound 3], the IC50 was over 10 µM.

Take `CCc1ccc(CN2CCC3(CCN(C(=O)CNC(=O)Cc4ccccn4)CC3)Oc3ccccc32)cc1` [Compound 10]: the IC50 is over 10 µM.

Consider `CC(=O)NCC(=O)N1CCC2(CC1)CCN(Cc1ccc(OC(F)(F)F)cc1)c1ccccc1O2` [Compound 22], for which the IC50 was 0.5 to 10 µM.

Consider `CC(=O)NCC(=O)N1CCC2(CC1)CCN(Cc1cccc(Br)c1)c1ccccc1O2` [Compound 39], for which the 50% inhibitory concentration (IC50) was in the range of 0.5 to 10 µM.

For the compound `CCc1ccc(CN2CCC3(CCN(C(=O)[C@@H](C)NC(C)=O)CC3)Oc3ccccc32)cc1` [Compound 4], the IC50 was 0.5 to 10 µM.

On to `CC(=O)NCC(=O)N1CCC2(CC1)CCN(Cc1ccc(Br)s1)c1ccccc1O2` [Compound 34], for which the IC50 lay within 0.5 to 10 µM.

Turning to `CC(=O)NCC(=O)N1CCC2(CC1)CCN(Cc1ccccc1Cl)c1ccccc1O2` [Compound 28], the IC50 was 0.5 to 10 µM.

In the case of `CC(=O)NCC(=O)N1CCC2(CC1)CCN(Cc1ccc(OC(C)(C)C)cc1)c1ccccc1O2` [Compound 18], the IC50 is over 10 µM.

Consider `CC(=O)NCC(=O)N1CCC2(CC1)CCN(Cc1ccc(C(C)(C)C)cc1)c1cccc(F)c1O2` [Compound 46], for which the IC50 fell in the range of 0.5 to 10 µM.

On to `CC(=O)NCC(=O)N1CCC2(CC1)CCN(Cc1cccc(OC(F)(F)F)c1)c1ccccc1O2` [Compound 36], for which the IC50 lay within 0.5 to 10 µM.

Regarding `CC(=O)NCC(=O)N1CCC2(CC1)CCN(Cc1ccccc1Br)c1ccccc1O2` [Compound 37], the IC50 lay in the range of 0.5 to 10 µM.

Take `CC(=O)NCC(=O)N1CCC2(CC1)CCN(Cc1ccc(Cl)cc1)c1ccccc1O2` [Compound 17]: the IC50 was over 10 µM.

For `CC(C)(C)c1ccc(CN2CCC3(CCN(C(=O)CNC(=O)c4cccs4)CC3)Oc3ccccc32)cc1` [Compound 44], the 50% inhibitory concentration (IC50) was 0.05 to 0.499 µM.

`CCc1ccc(CN2CCC3(CCN(C(=O)CNC(=O)C(C)C)CC3)Oc3ccccc32)cc1` [Compound 6]: the IC50 was 0.5 to 10 µM.

`CC(=O)NCC(=O)N1CCC2(CC1)CCN(Cc1cccc(F)c1)c1ccccc1O2` [Compound 29]: the IC50 fell in the range of 0.5 to 10 µM.

`CC(=O)NCC(=O)N1CCC2(CC1)CCN(Cc1ccc(F)cc1)c1ccccc1O2` [Compound 27]: the IC50 lay within 0.05 to 0.499 µM.

With `CCc1ccc(CN2CCC3(CCN(C(=O)CNC(=O)C[C@@H](C)O)CC3)Oc3ccccc32)cc1` [Compound 8], the IC50 was in the range of 0.5 to 10 µM.

Turning to `CC(=O)NCC(=O)N1CCC2(CC1)CCN(Cc1cccc(C(F)(F)F)c1)c1cccc(F)c1O2` [Compound 45], the half-maximal inhibitory concentration (IC50) was 0.5 to 10 µM.

Staying with this assay, now noted: Table 2, compounds of formula (Ib); protein from HepG2 cell P2 pellet, 20 μM stearoyl-CoA, 15 min at 25° C.; read-out: Ave IC50.
For the compound `CC(C)(C)c1ccc(CN2CCC3(CCN(c4ncc(C(=O)NCCC(N)=O)s4)CC3)Oc3c(F)cccc32)cc1` [Compound 91], the IC50 is 0.05 to 0.499 µM.

With `CC(C)(C)OC(=O)CCNC(=O)c1cnc(N2CCC3(CC2)CCN(Cc2ccc(C(C)(C)C)cc2)c2cccc(F)c2O3)s1` [Compound 116], the IC50 fell in the range of 0.0005 to 0.049 µM.

As to `COCCCNC(=O)c1cnc(N2CCC3(CC2)CCN(Cc2ccc(C(C)(C)C)cc2)c2cccc(F)c2O3)s1` [Compound 108], the IC50 was 0.05 to 0.499 µM.

Turning to `CC(C)(C)c1ccc(CN2CCC3(CCN(c4ncc(C(=O)NCCCN5CCCC5)s4)CC3)Oc3c(F)cccc32)cc1` [Compound 117], the IC50 was over 10 µM.

Consider `CC(C)(C)c1ccc(CN2CCC3(CCN(c4ncc(C(=O)NCc5ccccc5F)s4)CC3)Oc3c(F)cccc32)cc1` [Compound 87], for which the IC50 was in the range of 0.05 to 0.499 µM.

As to `CCCNC(=O)c1cnc(N2CCC3(CC2)CCN(Cc2ccc(C(C)(C)C)cc2)c2cccc(F)c2O3)s1` [Compound 94], the IC50 lay within 0.05 to 0.499 µM.

With `CC(C)(C)c1ccc(CN2CCC3(CCN(c4ncc(C(=O)NCCCO)s4)CC3)Oc3ccccc32)cc1` [Compound 134], the IC50 was in the range of 0.0005 to 0.049 µM.

Regarding `CC(C)(C)c1ccc(CN2CCC3(CCN(c4ncc(C(=O)NCc5ccco5)s4)CC3)Oc3c(F)cccc32)cc1` [Compound 102], the IC50 is 0.5 to 10 µM.

`Cc1nn(C)c(C)c1CNC(=O)c1cnc(N2CCC3(CC2)CCN(Cc2ccc(C(C)(C)C)cc2)c2cccc(F)c2O3)s1` [Compound 90]: the IC50 lay in the range of 0.5 to 10 µM.

`CC(C)(C)c1ccc(CN2CCC3(CCN(c4ncc(C(=O)NCCc5c[nH]cn5)s4)CC3)Oc3c(F)cccc32)cc1` [Compound 111]: the IC50 was over 10 µM.

For `CC(C)(C)c1ccc(CN2CCC3(CCN(c4ncc(C(N)=O)s4)CC3)Oc3c(F)cccc32)cc1` [Compound 76], the IC50 lay within 0.0005 to 0.049 µM.

Turning to `O=C(NC[C@H](O)CO)c1cnc(N2CCC3(CC2)CCN(Cc2cccc(C(F)(F)F)c2)c2cccc(F)c2O3)s1` [Compound 132], the IC50 fell in the range of 0.0005 to 0.049 µM.

In the case of `CCNC(=O)c1cnc(N2CCC3(CC2)CCN(Cc2ccc(C(C)(C)C)cc2)c2ccccc2O3)s1` [Compound 68], the IC50 was in the range of 0.0005 to 0.049 µM.

Take `CNC(=O)c1cnc(N2CCC3(CC2)CCN(Cc2cccc(C(F)(F)F)c2)c2ccccc2O3)s1` [Compound 58, N-methyl-2-(5-(3-(trifluoromethyl)benzyl)-4,5-dihydro-3H-spiro[benzo[b][1,4]oxazepine-2,4′-piperidine]-1′-yl)thiazole-5-carboxamide]: the IC50 is 0.0005 to 0.049 µM.

Turning to `Cc1ccc(CNC(=O)c2cnc(N3CCC4(CC3)CCN(Cc3ccc(C(C)(C)C)cc3)c3cccc(F)c3O4)s2)o1` [Compound 104], the IC50 was in the range of 0.05 to 0.499 µM.

On to `O=C(NCc1ccccc1)c1cnc(N2CCC3(CC2)CCN(Cc2cccc(C(F)(F)F)c2)c2ccccc2O3)s1` [Compound 57], for which the half-inhibitory concentration (IC50) fell in the range of 0.5 to 10 µM.

On to `CC(C)(C)c1ccc(CN2CCC3(CCN(c4ncc(C(=O)NCCN5CCCC5=O)s4)CC3)Oc3c(F)cccc32)cc1` [Compound 81], for which the IC50 is 0.5 to 10 µM.

On to `CC(C)(C)c1ccc(CN2CCC3(CCN(c4ncc(C(=O)NCc5ccccn5)s4)CC3)Oc3c(F)cccc32)cc1` [Compound 85], for which the IC50 lay in the range of 0.05 to 0.499 µM.

For `Cc1ccc(CCNC(=O)c2cnc(N3CCC4(CC3)CCN(Cc3ccc(C(C)(C)C)cc3)c3cccc(F)c3O4)s2)s1` [Compound 78], the IC50 lay in the range of 0.5 to 10 µM.

`NC(=O)c1cnc(N2CCC3(CC2)CCN(Cc2cccc(C(F)(F)F)c2)c2ccccc2O3)s1` [Compound 52]: the IC50 lay in the range of 0.0005 to 0.049 µM.

As for `CC(C)(C)c1ccc(CN2CCC3(CCN(c4ncc(C(=O)NCc5ccccn5)s4)CC3)Oc3c(F)cccc32)cc1` [Compound 106], the IC50 is over 10 µM.

As for `CCN(C)C(=O)c1cnc(N2CCC3(CC2)CCN(Cc2ccc(C(C)(C)C)cc2)c2ccccc2O3)s1` [Compound 66], the concentration for half-maximal inhibition (IC50) is 0.05 to 0.499 µM.

In the case of `C[S+]([O-])CCNC(=O)c1cnc(N2CCC3(CC2)CCN(Cc2ccc(C(C)(C)C)cc2)c2cccc(F)c2O3)s1` (stereo not drawn) [Compound 93], the IC50 lay in the range of 0.05 to 0.499 µM.

With `CC(C)(C)c1ccc(CN2CCC3(CCN(c4ncc(C(=O)NC[C@H](O)CO)s4)CC3)Oc3ccccc32)cc1` [Compound 126], the IC50 fell in the range of 0.0005 to 0.049 µM.

The same assay, now with this note: Table 3, compounds of formula (Ic); protein from HepG2 cell P2 pellet, 20 μM stearoyl-CoA, 15 min at 25° C.; read-out: Ave IC50.
As to `O=C(NCCC1CC1)c1ccc(N2CCC3(CC2)CCN(Cc2cccc(C(F)(F)F)c2)c2ccccc2O3)nc1` [Compound 169], the IC50 fell in the range of 0.0005 to 0.049 µM.

With `COC(=O)c1ccc(N2CCC3(CC2)CCN(Cc2ccc(C(C)(C)C)cc2)c2ccccc2O3)nn1` [Compound 139], the IC50 was 0.5 to 10 µM.

As for `CC(C)(C)c1ccc(CN2CCC3(CCN(c4ccc(C(=O)NCCc5ccncc5)nn4)CC3)Oc3c(F)cccc32)cc1` [Compound 144], the IC50 lay in the range of 0.0005 to 0.049 µM.

Take `CC(C)c1ccc(CN2CCC3(CCN(c4ccc(C(=O)NCCC5CC5)nn4)CC3)Oc3ccccc32)cc1` [Compound 181]: the IC50 lay within 0.0005 to 0.049 µM.

`NC(=O)c1ccc(N2CCC3(CC2)CCN(Cc2ccc(Oc4ccccc4)cc2)c2ccccc2O3)nn1` [Compound 184]: the IC50 fell in the range of 0.0005 to 0.049 µM.

Turning to `CC(C)Oc1ccc(CN2CCC3(CCN(c4ccc(C(N)=O)nn4)CC3)Oc3ccccc32)cc1` [Compound 179], the IC50 fell in the range of 0.0005 to 0.049 µM.

`CC(C)CNC(=O)c1ccc(N2CCC3(CC2)CCN(Cc2cccc(C(F)(F)F)c2)c2ccccc2O3)nn1` [Compound 158]: the IC50 is 0.05 to 0.499 µM.

Consider `O=C(NCCCO)c1ccc(N2CCC3(CC2)CCN(Cc2cccc(C(F)(F)F)c2)c2ccccc2O3)nn1` [Compound 161], for which the IC50 was 0.05 to 0.499 µM.

Regarding `CC(C)(C)c1ccc(CN2CCC3(CCN(c4ccc(C(=O)NCCc5c[nH]cn5)cn4)CC3)Oc3c(F)cccc32)cc1` [Compound 148], the IC50 was in the range of 0.5 to 10 µM.

`O=C(NCCC1CC1)c1ccc(N2CCC3(CC2)CCN(Cc2cc4ccccc4o2)c2ccccc2O3)nn1` [Compound 180]: the IC50 fell in the range of 0.0005 to 0.049 µM.

On to `CC(C)(C)c1ccc(CN2CCC3(CCN(c4ccc(C(=O)NCCC5CC5)nn4)CC3)Oc3ccccc32)cc1` [Compound 140], for which the IC50 lay in the range of 0.0005 to 0.049 µM.

Broadly, the IC50 is the point on the concentration scale where inhibition reaches its midpoint.
